These results are taken from patent US6677368B2, “4-aryl substituted indolinones” (Sugen, Inc., priority 2000, dated 2004).

Molecules are shown by their SMILES. Some results are limits rather than exact numbers.

Format in all cases: biochemical
One experiment concerns the target FGFR1 (Homo sapiens, UniProt P11362). The experiment can be described thus: FGFR1 bioassay (ELISA, in vitro kinase activity). Conditions: purified GST-FGFR1, poly(Glu-Tyr) substrate. As to the method: This assay is used to measure the in vitro kinase activity of FGF1-R in an ELISA assay.
1. Costar 96-well ELISA plates (Corning Catalog #3369).
2. Poly(Glu-Tyr) (Sigma Catalog #P0275).
4. 50 mM Hepes Buffer Solution.
5. Blocking Buffer (5% BSA/PBS).
6. Purified GST-FGFR1 (SUGEN, Inc.)
7. Kinase Dilution Buffer. Mix 500 μl 1M Hepes (GIBCO), 20 μl 5% BSA/PBS, 10 μl 100 mM sodium orthovanadate and 50 μl 5M NaCl.
9. ATP/MnCl2 phosphorylation mix: mix 20 μL ATP, 400 μL 1M MnCl2 and 9.56 ml dH2O.
10. NUNC 96-well V bottom polypropylene plates (Applied Scientific Catalog #AS-72092).
12. 0.05% TBST Add 500 μL TWEEN to 1 liter TBS.
13. Rabbit polyclonal anti-phosphotyrosine serum (SUGEN, Inc.).
14. Goat anti-rabbit IgG peroxidase conjugate (Biosource, Catalog #ALI0404).
1. Coat Costar 96 well ELISA plates with 1 μg per well Poly(Glu-Tyr) in 100 μl PBS. Store overnight at 4° C.
2. Wash coated plates once with PBS.
3. Add 150 μL of 5%BSA/PBS Blocking Buffer to each well. Incubate, with shaking, for 1 hr at room temperature.
4. Wash plate 2× with PBS, then once with 50 mM Hepes. Pat plates on a paper towel to remove excess liquid and bubbles.
5. Add 25 μL of 0.4 mM test compound in 4% DMSO or 4% DMSO alone (controls) to plate.
6. Dilute purified GST-FGFR1 in Kinase Dilution Buffer (5 ng kinase/50 μl KDB/well).
7. Add 50 μL of diluted kinase to each well.
8. Start kinase reaction by adding 25 μl/well of freshly prepared ATP/Mn++ (0.4 ml 1M MnCl2, 40 μL 10 mM ATP, 9.56 ml dH2O), freshly prepared).
9. Stop reaction with 25 μL of 0.5M EDTA.
10. Wash plate 4× with fresh TBST.
11. Make up Antibody Dilution Buffer: For 50 ml, mix 5 ml of 5% BSA, 250 μl of 5% milk and 50 μl of 100 mM sodium vanadate, bring to final volume with 0.05% TBST.
12. Add 100 μl per well of anti-phosphotyrosine (1:10000 dilution in ADB). Incubate, with shaking for 1 hr. at room temperature.
14. Add 100 μl per well of Biosource Goat anti-rabbit IgG peroxidase conjugate (1:6000 dilution in ADB). Incubate, with shaking for 1 hr. at room temperature.
15. Wash as in step 10 and then with PBS to remove bubbles and excess TWEEN.
16. Add 100 μl of ABTS/H2O2 solution to each well.
17. Incubate, with shaking, for 10 to 20 minutes. Remove any bubbles.
18. Read assay on Dynatech MR7000 ELISA reader: test filter at 410 nM, reference filter at 630 nM.
(In an ELISA, binding on a coated surface is turned into a signal by an enzyme label.)

The target in another experiment is T1, MET (Homo sapiens, UniProt P08581).
T1 construct: Purified GST fusion protein containing the Met kinase domain, SUGEN, Inc
T1 sequence (P08581 1078-1345 limits assumed): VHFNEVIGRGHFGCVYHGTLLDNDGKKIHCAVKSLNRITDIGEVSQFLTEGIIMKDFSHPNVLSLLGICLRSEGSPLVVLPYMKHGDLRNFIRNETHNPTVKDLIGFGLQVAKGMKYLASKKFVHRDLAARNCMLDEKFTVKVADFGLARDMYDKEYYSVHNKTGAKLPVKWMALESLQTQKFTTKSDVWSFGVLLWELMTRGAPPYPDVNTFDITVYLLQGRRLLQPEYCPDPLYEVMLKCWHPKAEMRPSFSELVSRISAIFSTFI
As to the kind of experiment: MET transphosphorylation assay. As to conditions: GST fusion protein containing the Met kinase domain, poly(glu-tyr) substrate. As to the method: MET TRANSPHOSPHORYLATION ASSAY
This assay is used to measure phosphotyrosine levels on a poly(glutamic acid:tyrosine, 4:1) substrate as a means for identifying agonists/antagonists of met transphosphorylation of the substrate.
1. Corning 96-well ELISA plates, Corning Catalog #25805-96.
2. Poly(glu-tyr), 4:1, Sigma, Cat. No; P 0275.
5. Blocking Buffer: Dissolve 25 g Bovine Serum Albumin, Sigma Cat. No A-7888, in 500 ml PBS, filter through a […] filter.
6. Purified GST fusion protein containing the Met kinase domain, SUGEN, Inc.
8. 10% aqueous (MilliQue H2O) DMSO.
9. 10 mM aqueous (dH2O) Adenosine-5′-triphosphate, Sigma Cat. No. A-5394.
10. 2×Kinase Dilution Buffer: for 100 ml, mix 10 mL 1M HEPES at pH 7.5 with 0.4 mL 5% BSA/PBS, 0.2 mL 0.1 M sodium orthovanadate and 1 mL 5M sodium chloride in 88.4 mL dH2O.
11. 4×ATP Reaction Mixture: for 10 mL, mix 0.4 mL 1 M manganese chloride and 0.02 mL 0.1 M ATP in 9.56 mL dH2O.
12. 4×Negative Controls Mixture: for 10 mL, mix 0.4 mL 1 M manganese chloride in 9.6 mL dH2O.
13. NUNC 96-well V bottom polypropylene plates, Applied Scientific Catalog #S-72092
15. Antibody Dilution Buffer: for 100 mL, mix 10 mL 5% BSA/PBS, 0.5 mL 5% Carnation® Instant Milk in PBS and 0.1 mL 0.1 M sodium orthovanadate in 88.4 mL TBST.
16. Rabbit polyclonal antophosphotyrosine antibody, SUGEN, Inc.
17. Goat anti-rabbit horseradish peroxidase conjugated antibody, Biosource, Inc.
18. ABTS Solution: for 1 L, mix 19.21 g citric acid, 35.49 g Na2HPO4 and 500 mg ABTS with sufficient dH2O to make 1 L.
19. ABTS/H2O2: mix 15 mL ABST solution with 2μL H2O2 five minutes before use.
1. Coat ELISA plates with 2 μg Poly(Glu-Tyr) in 100 μL PBS, hold overnight at 4° C.
2. Block plate with 150 μL of 5% BSA/PBS for 60 min.
3. Wash plate twice with PBS then once with 50 mM Hepes buffer pH 7.4.
4. Add 50 μl of the diluted kinase to all wells. (Purified kinase is diluted with Kinase Dilution Buffer. Final concentration should be 10 ng/well.)
5. Add 25 μL of the test compound (in 4% DMSO) or DMSO alone (4% in dH2O) for controls to plate.
6. Incubate the kinase/compound mixture for 15 minutes.
7. Add 25 μL of 40 mM MnCl2 to the negative control wells.
8. Add 25 μL ATP/MnCl2 mixture to the all other wells (except the negative controls). Incubate for 5 min.
9. Add 25 μL 500 mM EDTA to stop reaction.
10. Wash plate 3× with TBST.
11. Add 100 μL rabbit polyclonal anti-Ptyr diluted 1:10,000 in Antibody Dilution Buffer to each well. Incubate, with shaking, at room temperature for one hour.
12. Wash plate 3× with TBST.
13. Dilute Biosource HRP conjugated anti-rabbit antibody 1:6,000 in Antibody Dilution buffer. Add 100 μL per well and incubate at room temperature, with shaking, for one hour.
14. Wash plate 1× with PBS.
15. Add 100 μl of ABTS/H2O2 solution to each well.
16. If necessary, stop the development reaction with the addition of 100 μl of 0.2M HCl per well.
17. Read plate on Dynatech MR7000 ELISA reader with the test filter at 410 nM and the reference filter at 630 nM.

The target in another experiment is P38 (Homo sapiens, UniProt Q16539). As to the kind of experiment: P38 kinase inhibition.
Sequence of P38 (Q16539 whole entry): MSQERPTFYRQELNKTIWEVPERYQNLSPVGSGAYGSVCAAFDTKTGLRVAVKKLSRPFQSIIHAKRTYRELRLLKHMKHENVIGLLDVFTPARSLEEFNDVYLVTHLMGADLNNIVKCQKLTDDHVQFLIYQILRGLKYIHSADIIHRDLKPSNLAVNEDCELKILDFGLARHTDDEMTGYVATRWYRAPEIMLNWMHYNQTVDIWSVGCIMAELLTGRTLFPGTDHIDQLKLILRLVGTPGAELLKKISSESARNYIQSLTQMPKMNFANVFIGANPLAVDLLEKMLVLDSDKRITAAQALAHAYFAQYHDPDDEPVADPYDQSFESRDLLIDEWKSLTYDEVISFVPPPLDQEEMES

Sequence of FGFR1 (P11362 22-822, species assumed): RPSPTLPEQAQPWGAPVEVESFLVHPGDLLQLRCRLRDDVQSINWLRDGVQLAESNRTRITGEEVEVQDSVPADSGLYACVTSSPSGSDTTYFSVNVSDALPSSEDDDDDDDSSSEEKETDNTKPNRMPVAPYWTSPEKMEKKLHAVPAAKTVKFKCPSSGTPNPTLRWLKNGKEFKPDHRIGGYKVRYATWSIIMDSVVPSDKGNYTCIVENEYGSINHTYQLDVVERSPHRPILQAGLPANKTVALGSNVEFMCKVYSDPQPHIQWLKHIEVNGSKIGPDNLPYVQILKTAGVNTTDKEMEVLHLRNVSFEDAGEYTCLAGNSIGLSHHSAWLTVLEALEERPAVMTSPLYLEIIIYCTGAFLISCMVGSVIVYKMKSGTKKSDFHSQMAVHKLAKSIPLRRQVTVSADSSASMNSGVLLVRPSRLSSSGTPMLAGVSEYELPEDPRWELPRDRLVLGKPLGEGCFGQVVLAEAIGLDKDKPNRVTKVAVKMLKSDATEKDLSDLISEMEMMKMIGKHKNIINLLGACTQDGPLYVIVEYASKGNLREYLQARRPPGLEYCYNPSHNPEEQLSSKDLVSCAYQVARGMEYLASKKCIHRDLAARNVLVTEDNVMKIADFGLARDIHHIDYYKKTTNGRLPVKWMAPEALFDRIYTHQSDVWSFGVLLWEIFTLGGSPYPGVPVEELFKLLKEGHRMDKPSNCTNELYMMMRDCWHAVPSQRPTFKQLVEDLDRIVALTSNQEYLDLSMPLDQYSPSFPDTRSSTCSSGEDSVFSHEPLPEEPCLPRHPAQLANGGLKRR

For orientation: IC50 means the point on the concentration scale where inhibition reaches its midpoint. Higher therefore signals a need for much substance. Take `CCOC(=O)c1c(C)[nH]c(/C=C2\C(=O)Nc3cccc(-c4cccc(F)c4)c32)c1CCCN1CCN(C)CC1` [Example 18, 5-[4-(3-Fluoro-phenyl)-2-oxo-1,2-dihydro-indol-3-ylidenemethyl]-2-methyl-4-[3-(4-methyl-piperazin-1-yl)-propyl]-1H-pyrrole-3-carboxylic Acid Ethyl Ester]: the results for the IC50 at FGFR1, against MET and at P38 were 1.19 µM, 0.27 µM and 9.5 µM, respectively.

For the compound `Cc1[nH]c(/C=C2\C(=O)Nc3cccc(-c4ccc(Cl)cc4)c32)c(C)c1C(=O)N1CCN(C)CC1` [Example 20, 4-(4-Chloro-phenyl)-3-[3,5-dimethyl-4-(4-methyl-piperazine-1-carbonyl)-1H-pyrrol-2-ylmethylene]-1,3-dihydro-indol-2-one], the IC50 on FGFR1 was 1.15 µM; against MET, 0.52 µM; at P38 it was over 10 µM.

As to `Cc1[nH]c(/C=C2\C(=O)Nc3cccc(-c4ccc(Cl)cc4)c32)c(C)c1C(=O)NCCN1CCCC1` [Example 22, 5-[4-(4-Chloro-phenyl)-2-oxo-1,2-dihydro-indol-3-ylidenemethyl]-2,4-dimethyl-1H-pyrrole-3-carboxylic Acid (2-Pyrrolidin-1-yl-ethyl)-amide], the values for the IC50 at FGFR1, at MET and at P38 were 0.057 µM, 0.14 µM and 13.1 µM, respectively.

On to `Cc1cc(C(=O)N2CC[C@@H](N(C)C)C2)c(/C=C2\C(=O)Nc3cccc(-c4ccc(Cl)cc4)c32)[nH]1` [Example 25, 4-(4-Chloro-phenyl)-3-[3-((R)-3-dimethylamino-pyrrolidine-1-carbonyl)-5-methyl-1H-pyrrol-2-ylmethylene]-1,3-dihydro-indol-2-one], for which the figures for the IC50 against FGFR1, at MET and on P38 were 0.56 µM, 0.11 µM and over 10 µM, respectively.

Take `Cc1cc(C(=O)N2C[C@@H](C)N[C@@H](C)C2)c(/C=C2\C(=O)Nc3cccc(-c4ccc(Cl)cc4)c32)[nH]1` [Example 27]: the concentration for half-maximal inhibition (IC50) on FGFR1 was 0.63 µM; against MET it was 0.15 µM; at P38, over 10 µM.

As for `CCN(CC)CCNC(=O)c1c(C)[nH]c(/C=C2\C(=O)Nc3cccc(-c4cccc(Cl)c4)c32)c1C` [Example 29, 5-[4-(3-Chloro-phenyl)-2-oxo-1,2-dihydro-indol-3-ylidenemethyl]-2,4-dimethyl-1H-pyrrole-3-carboxylic Acid (2-Diethylamino-ethyl)-amide], the IC50 at FGFR1 was 0.029 µM; at MET it was 0.065 µM; on P38, over 10 µM.

With `Cc1cc(C(=O)N2CC[C@H](N(C)C)C2)c(/C=C2\C(=O)Nc3cccc(-c4cccc(Cl)c4)c32)[nH]1` [Example 32, 4-(3-Chloro-phenyl)-3-[3-((S)-3-dimethylamino-pyrrolidine-1-carbonyl)-5-methyl-1H-pyrrol-2-ylmethylene]-1,3-dihydro-indol-2-one], the results for the IC50 against FGFR1, on MET and on P38 were 0.35 µM, 0.12 µM and over 10 µM, respectively.

`Cc1cc(C(=O)NCCn2ccnn2)c(/C=C2\C(=O)Nc3cccc(-c4cccc(Cl)c4)c32)[nH]1` [Example 34, 2-[4-(3-Chloro-phenyl)-2-oxo-1,2-dihydro-indol-3-ylidenemethyl]-5-methyl-1H-pyrrole-3-carboxylic Acid (2-[1,2,3]Triazol-1-yl-ethyl)-amide]: the figures for the IC50 against FGFR1, on MET and on P38 were 0.5 µM, 0.13 µM and over 10 µM, respectively.

Take `Cc1cc(C(=O)N2C[C@@H](C)N[C@@H](C)C2)c(/C=C2\C(=O)Nc3cccc(-c4cccc(Cl)c4)c32)[nH]1` [Example 35, 4-(3-Chloro-phenyl)-3-[3-((cis)-3,5-dimethyl-piperazine-1-carbonyl)-5-methyl-1H-pyrrol-2-ylmethylene]-1,3-dihydro-indol-2-one]: the IC50 is 0.22 µM on FGFR1, 0.34 µM at MET and over 10 µM on P38.

In the case of `COc1ccc(-c2cccc3c2/C(=C/c2[nH]c(C)c(C(=O)NCCN4CCCC4)c2C)C(=O)N3)cc1` [Example 38, 5-[4-(4-Methoxy-phenyl)-2-oxo-1,2-dihydro-indol-3-ylidenemethyl]-2,4-dimethyl-1H-pyrrole-3-carboxylic Acid (2-Pyrrolidin-1-yl-ethyl)-amide], the IC50 against FGFR1 is 0.08 µM; at MET it was 0.11 µM; against P38, over 10 µM.

As to `COc1ccc(-c2cccc3c2/C(=C/c2[nH]c(C)c(C(=O)N4C[C@@H](C)N[C@@H](C)C4)c2C)C(=O)N3)cc1` [Example 40, 3-[4-((cis)-3,5-Dimethyl-piperazine-1-carbonyl)-3,5-dimethyl-1H-pyrrol-2-ylmethylene]-4-(4-methoxy-phenyl)-1,3-dihydro-indol-2-one], the figures for the IC50 against FGFR1, at MET and against P38 were 0.19 µM, 0.27 µM and over 10 µM, respectively.

As to `COc1ccc(-c2cccc3c2/C(=C/c2[nH]c(C)cc2C(=O)NCCN2CCCC2)C(=O)N3)cc1` [Example 41, 2-[4-(4-Methoxy-phenyl)-2-oxo-1,2-dihydro-indol-3-ylidenemethyl]-5-methyl-1H-pyrrole-3-carboxylic Acid (2-Pyrrolidin-1-yl-ethyl)-amide], the 50% inhibitory concentration (IC50) at FGFR1 is 0.56 µM; against MET, 0.32 µM; at P38 it was over 10 µM.
